The record followed here is patent US20170166974A1, “METHOD FOR THE TREATMENT OF MULTIPLE MYELOMA” (Erasmus University Medical CEnter Rotherdam, priority 2014, published 2017).

Molecules are shown by their SMILES.

For this experiment, the system named is multiple myeloma patients. Nature of the experiment: Survival analysis (PFS and OS) of multiple myeloma patients by molecular cluster, HOVON-65/GMMG-HD4 phase III trial, PAD vs VAD. Type of experiment: in vivo, human. The protocol:
Survival analysis was performed on a group of 301 MM patients, treated with Bortezomib (treated with PAD, a combination of bortezomib, adriamycin, and dexamethasone)) or conventional therapy (treated with VAD, a combination of vincristine, adriamycin, and dexamethasone). The patient group was stratified into ten clusters (Table 1).
A total number of 833 patients were included in a large prospective, randomized, phase III trial (HOVON-65/GMMG-HD4). Patients were randomly assigned to three cycles of induction treatment with vincristine, doxorubicin, and dexamethasone (VAD), or Bortezomib, doxorubicin, and dexamethasone (PAD). Both groups received high-dose melphalan with autologous stem-cell rescue followed by maintenance treatment with thalidomide (group assigned to VAD) or Bortezomib (group assigned to PAD) for 2 years (Sonneveld et al., J. Clin. Oncol. Vol. 30, 24:2946-2955, 2012).
The gene expression dataset GSE19784 was used, derived from patients included in the HOVON-65/GMMG-HD4 trial (Broyl et al., Blood 2010 116:2543-2553). A total number of 320 patients were included in the molecular classification and follow-up data were available for 319 patients. Clusters with less than ten patients were not included in this study, the total number of patients was, therefore, 301 (Table 1). Progression-free survival (PFS) was calculated from randomization until progression, relapse or death, whichever came first. Patients who received a non-myeloablative allogeneic stem cell transplantation (AlloSCT) were censored at the date of AlloSCT. Overall survival (OS) was measured from randomization until death from any cause. Patients alive at the date of last contact were censored. The median follow-up was 41 months. Survival analysis was performed using the SPSS software. Kaplan
Meier analysis was performed using the log rank test to assess for significance in survival time between clusters.

Consider `CC(C)C[C@H](NC(=O)[C@H](Cc1ccccc1)NC(=O)c1cnccn1)B(O)O` [Bortezomib], for which the “median PFS” value (CD-2 cluster) was 32 months; the “median PFS” value (MF cluster) worked out at 27 months; the “median PFS” value (Myeloid cluster) is 32 months; the “median PFS” value (NF-κB cluster) amounted to 32 months; the “median PFS” value (PR cluster) came to 19 months. Besides, the “difference in median PFS, conventional vs Bortezomib” value (CTA cluster) is “no difference” and the “difference in median PFS, conventional vs Bortezomib” value (hyperdiploid cluster) is “no difference”. The “median OS” value is listed as 54 months (MF cluster), > 41 months (MS cluster) and 22 months (PR cluster). The “PFS longer than in conventional treatment group” value (MS cluster) worked out at 6 months.
